Measurements taken from patent US20250114430A1, “MODIFIED PEPTIDOMIMETICS AND METHODS OF USE” (The University of North Carolina at Chapel Hill, priority 2021, published 2025).
pIC50: −log10 of the molar value. No end group written: not given here.

Legend:
[1] = target: T1, Orai1 (Homo sapiens, UniProt Q96D31); assay: Dose response of Ca^2+ influx (SOCE), Ca^2+ add back approach, HEK293T cells; format: cell-based; design: Endogenous Orai1/store operated Ca^2+ influx have been extensively studied in HEK293T cells; endogenous in cells; host or cells: HEK293T
Procedure: HEK293T cells were cultured in 384 well plates. Cells were then exposed to vehicle or […] ELD607 for 1 h. 100 nM thapsigargin was then added followed by extracellular Ca^2+ to differentiate ER Ca^2+ release and SOCE. n=8-12 cultures per data point.
(§1) ELD607 requires Orai1 expression to inhibit Ca^2+ signaling. […] Using this approach, curves were fitted to the data and the 50% inhibitory concentrations (IC50S) were calculated.

[2] = Lung retention and blood exposure after intratracheal dosing in mice; conditions: mouse, in vivo
Procedure: FIG. 30 panels B and C show % ELD607 recovered in BAL (FIG. 30 panel B) and blood (FIG. 30 panel C).
ELD607 is retained in the lung lumen. ELD607-TAMRA or vehicle (saline) was administered to mice intratracheally (0.5 mM, 1 h). Lungs were isolated, fixed, clarified and imaged using light-sheet fluorescence microscopy. […] We then dosed mice with 10 mg/kg ELD607 and collected BAL and blood. ELD607 levels declined over time in the BAL and plateaued with ˜10% of the initial dose detected after 2 h (FIG. 30, panel B).

[3] = test system: Primary human bronchial epithelial cultures; assay: Cytotoxicity and transepithelial resistance in primary human bronchial epithelial cultures; format: cell-based; conditions: 1 mM, 24 h
Procedure: FIG. 28 panels C and D show cell viability per arbitrary units (left) and transepithelial resistance (right) of vehicle vs. ELD607 before and after treatment.
ELD607 is non-toxic in vitro and in vivo. To investigate potential cytotoxic effects of ELD607, […] were exposed to 100 μM ELD607 for 24 h. Cytotoxicity was assessed by exposing cells to calcein to label live cells and fluorescence read by multi-plate reader. […] Primary human bronchial epithelial cultures were exposed to 1 mM ELD607 or vehicle control (saline) for 24 h. Cytotoxicity was assessed by confocal microscopy using calcein and propidium iodide to label live and dead cells respectively. […] Transepithelial resistance was also measured before and after treatment as a measure of epithelial integrity.

[4] = target: T1, Orai1; assay: Thapsigargin / Ca^2+ add back assay in HEK293T cells with anti-Orai1 shRNA; format: cell-based; design: Endogenous Orai1/store operated Ca^2+ influx have been extensively studied in HEK293T cells; endogenous in cells; host or cells: HEK293T
Procedure: HEK293T cells were transfected with anti-Orai1 shRNA for 48 h and the change in Fluo4 fluorescence was measured. Cells were then exposed to vehicle or […] ELD607 for 1 h. Thapsigargin was then added followed by extracellular Ca^2+ to differentiate ER Ca^2+ release and SOCE. n=8 cultures per condition.
as §1

[5] = test system: P. aeruginosa; assay: P. aeruginosa growth in the presence of peptide; format: cell-based; conditions: in vitro
[6] = test system: HEK293T cells; assay: Store operated Ca^2+ influx in HEK293T cells after incubation of peptide in ARDS BAL; format: cell-based
From the text: ELD607 is active in ARDS patient immune cells. Pulmonary neutrophilic inflammation and increased lung neutrophil elastase levels are common in ARDS patient lungs. We therefore evaluated whether ELD607 remained stable in BAL samples patients with ARDS caused by bacterial pneumonia. […] (FIG. 27, panel A).

[7] = test system: house dust mite allergen; assay: House dust mite (HDM) allergic lung inflammation model; format: in vivo, mice; conditions: HDM 14 days, 0.5 mg/kg intranasally for 2 days
Procedure: Mice were exposed to HDM allergen for 14 days, with […] ELD100 or […] ELD607 instilled intranasally for 2 days before sacrifice.
ELD607 reduces allergic inflammation. Mice were exposed to house dust mite allergen for 14 days. 0.5 mg/kg ELD100 or ELD607 were instilled intranasally for 2 days before sacrifice.

[8] = test system: P. aeruginosa POA1; assay: P. aeruginosa infection in Orai1 heterozygous mice and WT littermates; format: in vivo; conditions: 10^7 CFU/mouse, 0.5 mg/kg intranasal
From the text: ELD607, but not global Orai1 inhibition or steroids beneficially reduce pulmonary inflammation after P. aeruginosa infection.

[9] = test system: mouse hepatitis virus (MHV-A59; a murine coronavirus); assay: Murine coronavirus MHV-A59 infection; format: in vivo
Procedure: Mice were dosed intranasally with 10^6 PFU MHIV-A59 followed by vehicle (saline) or 1.0 mg/kg of ELD607 per mouse 4 d p.i. BAL and lungs were collected 6 d p.i.
ELD607 normalized leukocyte composition and viral loads in the airways after murine coronavirus infection. Coronaviruses are emerging pathogens with severe outcomes in the human population. Mice were infected with 10^6 PFU mouse hepatitis virus (MHV-A59; a murine coronavirus) intranasally. The mice were then dosed with 1.0 mg/kg ELD607 or vehicle intranasally 4 days p.i. and then 2 days after dosing with ELD607 (6 days p.i.), mice were sacrificed to collect BAL and lung homogenates.

[10] = test system: αSMA; assay: αSMA deposition in primary myofibroblasts from IPF patients; format: cell-based, human; conditions: primary myofibroblasts from five IPF patients
Procedure: Each pair of point represents paired data from 5 different IPF donors.
In vitro Methods: Fibroblasts were exposed to 10 nM TFGβ for 3-7 days as indicated. Then, ELD607 was added overnight. Fibroblasts were then fixed in paraformaldehyde, stained with primary a smooth muscle actin (αSMA) antibody, and imaged by confocal microscopy. Myofibroblasts were exposed to ELD607 without any TGFβ pre-treatment. In some cases, Western blotting was used to probe for αSMA.

[11] = test system: HEK293T cells; assay: Cytoplasmic Ca^2+ (Fluo-4) in HEK293T cells incubated with ELD peptides; format: cell-based; conditions: 2 hours with Fluo-4 plus or minus peptide
[12] = 1.0 mg/kg intranasal 4 days p.i., read 6 days p.i.

T1 sequence (Q96D31 whole entry): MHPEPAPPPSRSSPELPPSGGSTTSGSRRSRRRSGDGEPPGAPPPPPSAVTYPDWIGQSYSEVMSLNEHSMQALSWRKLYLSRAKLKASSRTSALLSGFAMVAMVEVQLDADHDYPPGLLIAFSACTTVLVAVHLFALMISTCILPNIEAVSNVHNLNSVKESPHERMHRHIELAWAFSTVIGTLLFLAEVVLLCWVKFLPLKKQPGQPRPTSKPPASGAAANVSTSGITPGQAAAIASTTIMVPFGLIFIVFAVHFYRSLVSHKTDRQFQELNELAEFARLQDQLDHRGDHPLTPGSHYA

For VHDIVNMLIRG [ELD607, VHDIVNMLIRG], the pIC50 ([1]; Ca^2+ influx, HEK293T, 100 nM thapsigargin, read-out: IC50 (Molar)) was 7.09, the “Bottom (%)” value ([1]; fitted curve bottom, text: maximal inhibitions) was 37.76% and the “% of the initial dose detected in BAL” value [2] was ~10%. For the same sequence, the “% of the original dose detected in the blood” value [2] was “less than 0.3%”, the “cytotoxicity (calcein and propidium iodide)” value [3] was “not significantly different to vehicle control” and the transepithelial resistance ([3]; before and after treatment) was “No differences were found”. The “thapsigargin-stimulated Ca^2+ release from the ER” value ([4]; absence of extracellular Ca^2+) was “had no effect on this component”, the “effect on Ca^2+ homeostasis after shRNA knockdown of Orai1” value ([4]; anti-Orai1 shRNA 48 h) was “no longer able to affect Ca^2+ homeostasis” and the “Ca^2+ influx” value ([4]; extracellular Ca^2+ added back) was “reduced Ca^2+ influx”. The P. aeruginosa growth [5] was “no effect on P. aeruginosa growth”, the “inhibition of store operated Ca^2+ influx after incubation in ARDS BAL” value [6] was “did not prevent ELD607 from inhibiting store operated Ca^2+ influx” and the BAL eosinophilia [7] was “significantly reduced”. The BAL macrophages [7] was “increased BAL macrophages”, the BAL neutrophilia [7] was “significantly reduced BAL neutrophilia” and the “leukocyte levels in WT littermate controls” value [8] was “normalized leukocytes similar to naïve mice”. For the same sequence, the “lung lymphocyte levels (B cells and T cells)” value [9, 12] was “significantly reduced lung lymphocyte levels”, the “lung monocyte and macrophage levels” value [9, 12] was “normalized lung monocyte and macrophage levels” and the “viral loads in the lungs and BAL” value ([9]; one dose 1.0 mg/kg) was “significantly reduced”. For the same sequence, the αSMA deposition [10] was “significantly reduces αSMA deposition” and the “cytoplasmic calcium levels as compared to a control scrambled peptide” value [11] was “reduced cytoplasmic calcium levels”.
